According to patent publication US20140031431A1, “PEST-IMPERVIOUS PACKAGING MATERIAL AND PEST-CONTROL COMPOSITION” (Biopack Ltd., priority 2004, published 2014):

What was measured:
[1] = system: several field and storage insects; conditions: direct application methods; cited from earlier work
R. dominica adults [2] = test: Non-choice paper perforation bioassay (Examples 2-4); format: in vivo, Rhyzopertha dominica; conditions: 24 hours
From the text: The device used for the penetration prevention bioassay consisted of two identical open-ended glass cylinders (24 mm i.d., 28 mm o.d., 26 mm height) each with four notches spaced at equal distances around the outer rim. The impregnated office paper and a piece of wire-mesh (US standard No. 25) cut into 28 mm diameter discs were placed together on top of one cylinder. Then the second cylinder was placed over the wire-mesh and the two cylinders were pressed together and held in place by two rubber bands, secured by the notches in the cylinder rims (Navarro et al., 1998). Ten 10-15 d old R. dominica adults were placed inside the top cylinder and were kept in the test devices for […] in a temperature and humidity controlled room. All tests were run at 27° C. and 65% R.H., and there were ten replicates (devices) per test. At the end of each exposure period, the discs were examined on a black surface under a binocular microscope at 15× magnification. The number of perforations appearing as black circles were counted, and a comparative analysis was performed using the Student's t test for residual effect and the differences between control and dosages applied were determined using Dunnet's test (Anon., 1989). […]

R. dominica adults [3] = test: Choice paper perforation bioassay (Examples 2-4); format: in vivo, Rhyzopertha dominica
Description: (§1) In order to evaluate the effect of isolated samples or compounds on the behavior of storage insects, three bioassays were conducted: repellency, “choice” and “non-choice” paper perforation bioassays. These bioassays were aimed to uncover two principle activities: repellency and antifeedant activities. Accordingly, the “repellency bioassay” uncovered the sample's capacity to repel insects and the “choice bioassay” uncovered the combined antifeedant and repelling activities. […] Thus, the combined data of all three bioassays enabled determining the antifeedant capacity of the sample.
The same methodology used in the non-choice test was used in this test. However, in choice test, the 28 mm diameter discs of 110 μm thick office paper were divided in half; one side was impregnated with the oil or fraction under test, while the other half was used as a blank and was treated with acetone only. In this test only a 50 microgram sample of the test oil or fraction was applied per cm^2 of paper. […] The number of perforations appearing in the two parts of the disc were counted, and a comparative analysis was performed using the Student's t test for residual effect and the differences between control and dosages applied were determined using Dunnet's test (Anon., 1989).

storage insects = test: Penetration prevention (antifeedant) effect judged from combined repellency, choice and non-choice bioassays; format: in vivo, Rhyzopertha dominica; design: key: 0 (no effect); +; ++; +++ (strong effect); conditions: at 50 μg/cm^2, 4 arbitrary classes
Description: as §1

[4] = system: storage beetle Tribolium castaneum; conditions: as long as 8 weeks following application; cited from earlier work
T. castaneum adults = test: Repellency bioassay (Examples 2-4); format: in vivo, Tribolium castaneum; design: key to Repellency: 0 (no effect); +; ++; +++ (strong effect)
Description: as §1
The propensity of the tested extracts to repel insects was determined against T. castaneum adults using the methods by Laudani et al. (1955) and McDonald et al. (1970). Accordingly, filter paper strips (Filtrak 3 HW; 10×20 cm) were treated with 4 ml of acetone solutions of turmeric extracts at 50 μg/cm^2 (or any other predetermined concentration). Each treated paper strip was attached lengthwise by Scotch tape on the reverse side, edge to edge, to two untreated 5×20 cm strips, to which acetone alone had been similarly applied. Two glass rings, 2.5 cm high and 6.4 cm i.d., were then placed over the two matched papers so that the joined edges of the papers bisected the rings. Ten adults of the test insect species were then exposed separately on the test arenas inside each glass ring, and their numbers on the treated and untreated halves were recorded every hour for the first eight hours exposure on the first day, and then in the morning of the next day two additional recordings were made for a total of 10 consecutive readings. In each test four replicates were conducted. All tests were performed at 27° C. The average count of all four replicates, each containing 10 reading periods was converted to percent repellency values, as described by Laudani et al. (1955).

CC(C)=CC(=O)CC(C)c1ccc(C)cc1 (stereo not drawn) [ar-turmerone, 2-methyl-6-(4-methylphenyl)-2-hepten-4-one]
concentration at which insecticidal [1]: at least 500 ppm | Non-choice test (%) (50 μg/cm^2) (R. dominica adults [2]): −483% | Choice Test (%) (50 μg/cm^2) (R. dominica adults [3]): 89% | Penetration prevention effect (storage insects): 0 | average repellency [4]: 62.9% | repellency class [4]: IV (class IV, 60.1-80%) | Repellency test (%) (50 μg/cm^2) (T. castaneum adults; 50 μg/cm^2): 75% | Repellency (T. castaneum adults; at 50 μg/cm^2, 4 arbitrary classes): +++ | ar-turmerone required to achieve 60% repellency (T. castaneum adults; estimated from concentration-repellency curve (FIG. 2)): ~32 μg/cm^2
